Results on one compound are retold here after patent US8697747B2, “Enhancing coagulation or reducing fibrinolysis” (THe UAB Research Foundation, priority 2009, dated 2014).

The subject of this assay is PAI-1 deficient plasma. Put plainly: CLSM thrombelastography with tPA, PAI-1 deficient plasma. The following applies: 100 μM CORM-2, tPA 100 IU/mL, median, n=8. The class given is biochemical, human. The method, then:
Pooled normal plasma (George King Bio-Medical, Overland Park, Kans.) anticoagulated with sodium citrate was utilized for experimentation. […] Factor XIII (FXIII) deficient plasma anticoagulated with sodium citrate was also obtained from the same vendor.
Plasma Sample Composition. The final volume for all subsequently described plasma sample mixtures was 359.4 μL. Sample composition consisted of 316 μL of plasma; 10 μL of tissue factor (0.1% final concentration in 0.9% NaCl; Diagnostica Stago, Asnieres, France), 3.6 μL of dimethyl sulfoxide (DMSO) or DMSO with CORM-2 (Sigma-Aldrich, St. Louis, Mo.) or DMSO with inactivated CORM-2 (iCORM-2), 10 μL of tissue-type plasminogen activator (tPA, 580 U/μg, Genentech, Inc., San Francisco, Calif.) diluted with 10 mM potassium phosphate buffer (pH 7.4) for a final activity of 100 IU/mL, and 20 μL of 200 mM CaCl2. […] This concentration of CORM-2 was chosen because the concentration of CO released would be expected to be in the mid to lower ranges used in previously reported ex vivo, in vitro, and cell-based experiments (Motterlini et al. 2002; Megias et al. 2007; Chlopicki et al. 2006; Dong et al. 2008). […] (Motterlini et al. 2005). While CORM-2 decays slowly in DMSO, DMSO was added to the dry compound just prior to placement into the plasma mixture. The specific series of experiments are subsequently presented.
Assessment of the Effects of CORM-2 on CLSM Parameters in FXIII, PAI-1, TAFI and α2-antiplasmin Deficient Plasmas. These experiments were performed to elucidate the roles played by antifibrinolytic enzymes during CORM-2 mediated modulation of fibrinolysis. Samples of the various deficient plasmas were exposed to 0 or 100 μM of CORM-2 (n=8 per condition). Samples underwent CLSM analyses as subsequently described.
Clot Lifespan Model Analyses. As described in Example 1, plasma sample mixtures were placed in a disposable cup in a computer-controlled THROMBELASTOGRAPH® hemostasis system (Model 5000, Haemoscope Corp., Niles, Ill.), with addition of CaCl2 as the last step to initiate clotting. Data were collected until clot lysis time occurred. […] As this model involves complete fibrinolysis, TTG is equivalent to ACL, so ACL was not presented as it provides no additional information.
Statistical Analyses. Data are presented as median (1st, 3rd quartiles). […] Nonlinear and linear analyses and curve fitting of the various CORM-2 concentrations effects on CLSM variables were performed with commercially available software (SigmaPlot 11.0, Systat Software, Inc., San Jose, Calif.). Analyses of the effects of CORM-2 and iCORM-2 on CLSM variables in normal plasma were conducted with Kruskal-Wallis one way analysis of variance on ranks, whereas Mann-Whitney rank sum tests were used to assess the effects of CORM-2 on CLSM variables in the various immunodepleted/congenitally deficient plasma types (SigmaStat 3.1, Systat Software, Inc., San Jose, Calif.). Graphical representation of the data was generated with commercially available software (SigmaPlot 11.0, Systat Software, Inc., San Jose, Calif.; CorelDRAW 12.0, Corel Corporation, Ottawa, Ontario, Canada; Origin 7.5, OriginLab Corp., Northampton, Mass.). A P value of <0.05 was considered significant.

Consider `[C-]#[O+].[C-]#[O+].[C-]#[O+].[C-]#[O+].[C-]#[O+].[C-]#[O+].[Cl][Ru][Cl].[Cl][Ru][Cl]` [CORM-2, tricarbonyldichlororuthenium (II) dimer], for which the “CGT (clot growth time)” value was found to be 500 s, the “CLS (clot lifespan)” value was 1565 s, the “CLT (clot lysis time)” value was 1070 s and the “MRL (maximum rate of lysis)” value is on record as −2.2 -dynes/cm^2/sec. Further, the “MRTG (maximum rate of thrombus generation)” value is 9.4 dynes/cm^2/sec, the “TMRL (time to maximum rate of lysis)” value is 750 s, the “TMRTG (time to maximum rate of thrombus generation)” value is 160 s and the “TTG (total thrombus generation)” value came out at 228 dynes/cm^2.
